Assay results: patent US20210046160A1 (Synthorx, Inc., priority 2019, published 2021)

Experiments:
CTLL-2 = CTLL-2 proliferation; type: cell-based
Treg cells = experiment: pSTAT5 concentration-response in human LRS-derived PBMC samples (flow cytometry): Treg cells; type: cell-based; settings: ratio of pSTAT5 EC50 values; for CD8+/Treg ratio: Table 12; for CD8/Treg ratio: Table 4
Description: These studies were performed at PrimityBio LLC (Fremont, Calif.). […] Staining panel for flow cytometry study of LRS-derived PBMC samples include markers for Effector T cells (Teff: CD3+, CD4+, CD8+, CD127+), NK cells (CD3-, CD16+), and Regulatory T cells (Treg: CD3+, CD4+, CD8-, IL-2Rα+, CD127-1).
The EC50 values (pg/mL) was calculated from dose response curves generated from MFI plots.
These studies were performed at PrimityBio LLC (Fremont, Calif.). […] Staining panel for flow cytometry study of LRS-derived PBMC samples include markers CD4, CD4+ memory central, CD4+ memory effect, CD4+ memory T cells, CD4+ Naive T cells, CD4+ T cells, CD8, CD8+ memory central, CD8+ memory effect, CD8+ memory T cells, CD8+ Naive T cells, CD8+ T cells, NK cells, and T regulatory cells.
Conjugates of Table 12 were synthesized by modification of SEQ NO. 1. These studies were performed at PrimityBio LLC (Fremont, Calif.).
The EC50 values (pg/ml) were calculated from dose response curves generated from the MFI plots.

[1] = PK study E3826-U1704 in naïve C57BL/6 mice (human IL-2 ELISA of plasma); type: in vivo; settings: for AUC0-t / AUCINF / CL / Cmax / Tmax / Vss (distribution volume) / t½: C57BL/6 female mice, single IV bolus 0.3 mg/kg, E62_5 kD from a separate study; for mean plasma concentrations measurable out to (post-dose): single IV bolus, 120 h = last measured time point
Description: Terminal blood samples were collected via cardiac puncture at the points indicated. […] Plasma and blood cells (in both studies) and tumors in study E3826-U1803 were collected for PK and PD analyses.
Bioanalysis of plasma samples was performed using a qualified human IL-2 ELISA assay (Abcam, Cambridge, UK). Concentrations of Aldesleukin, E62_30kD and P65_30kD and the internal standard in samples derived from plasma were determined using an ELISA assay. […] The PK data were imported into Phoenix WinNonlin v6.4 (Certara/Pharsight, Princeton, N.J.) for analysis. The group mean plasma concentration versus time data were analyzed with noncompartmental methods using an IV bolus administration model.

[2] = PK study of K35_30kD in C57BL/6 mice (Example 8); type: in vivo; settings: male C57BL/6 mice
Description: The lyophilized test article was reconstituted in PBS, and nine male C57BL/6 mice were dosed with 0.3 and 3 mg/kg via intravenous tail vein injection for each dose group (see collection details below). Blood samples were collected at 0.08, 0.25, 0.5, 1, 2, 4, 8, 12, and 24 hours post dose. […] To adjust for ELISA-specific differences in sensitivity of kit detection of native and PEGylated compounds, native IL-2 and K35_30kD test article standard curves were generated using the test article diluent buffer, and data were analyzed with respect to respective standard curves. The data plotted represent the mean and SEM of three individual samples (biological replicates) as described above, and PK parameters for K35_30 kD test articles were extracted and summarized in Table 14.

D20_30kD: 30 kD PEGylated IL-2 conjugate at D20, made by modification of SEQ NO. 1 [Compound D20_30kD]
EC50, CTLL-2 proliferation (CTLL-2; Table 12): 689939 pg/mL | CD8+/Treg ratio (Treg cells): 8

E62K: IL-2 variant with residue substitution E62K, not PEGylated [Compound E62K]
EC50, CTLL-2 proliferation (CTLL-2; Table 4): 58,213 pg/mL | CD8/Treg ratio (Treg cells): 5.8

E62_5kD: SEQ ID NO: 21: IL-2 (SEQ ID NO: 4) with E62 replaced by AzK conjugated to methoxy linear 5 kDa PEG [Compound E62_5kD]
AUC0-t [1]: 798 ng·h/mL | AUCINF [1]: 807 ng·h/mL | CL [1]: 6.2 mL/min/kg | Cmax [1]: 936 ng/mL | Tmax [1]: 7.98 min | Vss (distribution volume) [1]: 0.404 L/kg | t½ [1]: 2.56 h | mean plasma concentrations measurable out to (post-dose) [1]: 12 h | EC50, CTLL-2 proliferation (CTLL-2; Table 4): 275,590 pg/mL | CD8/Treg ratio (Treg cells): 2.3

E62_30kD: SEQ ID NO: 26: IL-2 (SEQ ID NO: 4) with E62 replaced by AzK conjugated to methoxy linear 30 kDa PEG [Compound E62_30kD]
AUC0-t [1]: 37,100 h*ng/mL | AUCINF [1]: 37,100 h*ng/mL | CL [1]: 0.134 mL/min/kg | Cmax [1]: 4,230 ng/mL | Tmax [1]: 1.8 min | Vss (distribution volume) [1]: 0.0923 L/kg | t½ [1]: 14.500 h | mean plasma concentrations measurable out to (post-dose) [1]: 120 h | EC50, CTLL-2 proliferation (CTLL-2; Table 4): 398,012 pg/mL | CD8/Treg ratio (Treg cells): 1.8

E100_30kD: 30 kD PEGylated IL-2 conjugate at E100, made by modification of SEQ NO. 1 [Compound E100_30kD]
EC50, CTLL-2 proliferation (CTLL-2; Table 12): 1676 pg/mL | CD8+/Treg ratio (Treg cells): 405

H16_30kD: 30 kD PEGylated IL-2 conjugate at H16, made by modification of SEQ NO. 1 [Compound H16_30kD]
EC50, CTLL-2 proliferation (CTLL-2; Table 12): 80755 pg/mL | CD8+/Treg ratio (Treg cells): 345

K9_30kD: 30 kD PEGylated IL-2 conjugate at K9, made by modification of SEQ NO. 1 [Compound K9_30kD]
EC50, CTLL-2 proliferation (CTLL-2; Table 12): 504 pg/mL | CD8+/Treg ratio (Treg cells): 496

K35_30kD: SEQ ID NO: 29: IL-2 (SEQ ID NO: 4) with K35 replaced by AzK conjugated to methoxy linear 30 kDa PEG [Compound K35_30kD]
AUC1/2extrap ([2]; 0.3 mg/kg single IV): 35.3% | AUCo-t/D ([2]; 0.3 mg/kg single IV): 128000 ng·h/mL | AUG0-∞ ([2]; 0.3 mg/kg single IV): 59600 ng·h/mL | Cmax ([2]; 0.3 mg/kg single IV): 6080 ng/mL | Cmax/D ([2]; 0.3 mg/kg single IV): 20300 kg·ng/mL/mg | Tmax ([2]; 0.3 mg/kg single IV): 0.250 h | t1/2 ([2]; 0.3 mg/kg single IV): 18.2 h | AUC1/2extrap ([2]; 3 mg/kg single IV): 37.4% | AUCo-t/D ([2]; 3 mg/kg single IV): 142000 ng·h/mL | AUG0-∞ ([2]; 3 mg/kg single IV): 679000 ng·h/mL | Cmax ([2]; 3 mg/kg single IV): 57700 ng/mL | Cmax/D ([2]; 3 mg/kg single IV): 19200 kg·ng/mL/mg | Tmax ([2]; 3 mg/kg single IV): 0.250 h | t1/2 ([2]; 3 mg/kg single IV): 19.5 h | CD8/Treg ratio (Treg cells): 176.0

L19_30kD: 30 kD PEGylated IL-2 conjugate at L19, made by modification of SEQ NO. 1 [Compound L19_30kD]
EC50, CTLL-2 proliferation (CTLL-2; Table 12): 3510 pg/mL | CD8+/Treg ratio (Treg cells): 241

M23_30kD: 30 kD PEGylated IL-2 conjugate at M23, made by modification of SEQ NO. 1 [Compound M23_30kD]
EC50, CTLL-2 proliferation (CTLL-2; Table 12): 1102 pg/mL | CD8+/Treg ratio (Treg cells): 524

N26_30kD: 30 kD PEGylated IL-2 conjugate at N26, made by modification of SEQ NO. 1 [Compound N26_30kD]
EC50, CTLL-2 proliferation (CTLL-2; Table 12): 2594 pg/mL | CD8+/Treg ratio (Treg cells): 483

N88R/D109_30kD: IL-2 variant N88R with 30 kD PEG at D109, made by modification of SEQ NO. 1
EC50, CTLL-2 proliferation (CTLL-2; Table 12): 59577 pg/mL | CD8+/Treg ratio (Treg cells): 71

N88R: IL-2 variant with substitution N88R [Compound N88R]
EC50, CTLL-2 proliferation (CTLL-2; Table 12): 363 pg/mL | CD8+/Treg ratio (Treg cells): 1356

N88_30kD: 30 kD PEGylated IL-2 conjugate at N88, made by modification of SEQ NO. 1 [Compound N88_30kD]
EC50, CTLL-2 proliferation (CTLL-2; Table 12): 66606 pg/mL | CD8+/Treg ratio (Treg cells): 34

N119_30kD: 30 kD PEGylated IL-2 conjugate at N119, made by modification of SEQ NO. 1 [Compound N119_30kD]
EC50, CTLL-2 proliferation (CTLL-2; Table 12): 1215 pg/mL | CD8+/Treg ratio (Treg cells): 268

P65_5kD: SEQ ID NO: 20: IL-2 (SEQ ID NO: 4) with P65 replaced by AzK conjugated to methoxy linear 5 kDa PEG [Compound P65_5kD]
EC50, CTLL-2 proliferation (CTLL-2; Table 4): 194,924 pg/mL | CD8/Treg ratio (Treg cells): 2.2

Q126_30kD: 30 kD PEGylated IL-2 conjugate at Q126, made by modification of SEQ NO. 1 [Compound Q126_30kD]
EC50, CTLL-2 proliferation (CTLL-2; Table 12): 3584 pg/mL | CD8+/Treg ratio (Treg cells): 670

S127_30kD: 30 kD PEGylated IL-2 conjugate at S127, made by modification of SEQ NO. 1 [Compound S127_30kD]
EC50, CTLL-2 proliferation (CTLL-2; Table 12): 123 pg/mL | CD8+/Treg ratio (Treg cells): 615

T123_30kD: 30 kD PEGylated IL-2 conjugate at T123, made by modification of SEQ NO. 1 [Compound T123_30kD]
EC50, CTLL-2 proliferation (CTLL-2; Table 12): 255 pg/mL | CD8+/Treg ratio (Treg cells): 569

T131_30kD: 30 kD PEGylated IL-2 conjugate at T131, made by modification of SEQ NO. 1 [Compound T131_30kD]
EC50, CTLL-2 proliferation (CTLL-2; Table 12): 641 pg/mL | CD8+/Treg ratio (Treg cells): 515

V91K: IL-2 variant with substitution V91K [Compound V91K]
EC50, CTLL-2 proliferation (CTLL-2; Table 12): 99.5 pg/mL | CD8+/Treg ratio (Treg cells): 720
